Values of other authors, collected in patent publication US20230143212A1 (Navinta, LLC, priority 2021, published 2023).
“And” between values parts separate entries of the source, which are not always exact repeats. Equal values may be shown once. Read-outs that look alike come from different tables or passages of the source.

What was measured:
[1] = for solubility in propylene glycol/water: 25° C.
[2] = orally administered
[3] = ethyl alcohol, DMSO, propylene glycol, polyethylene glycol, glycerol, dimethylformamide
[4] = rabbits; composition in polyethylene glycol-300 with and without bile salt

solubility in propylene glycol/water ([1]; 60% v/v propylene glycol): about 250 mM and 60 mg/ml
solubility in propylene glycol/water ([1]; until reaching 40% v/v propylene glycol): up to 50 mM and ~ 12 mg/ml
pH dependence of solubility in water ([1]; water): pH-independent solubility
Plasma T½ [2]: ~ 50 minutes
oral absorption [2]: almost completely absorbed
oral bioavailability [2]: ~ 15%
solubility in organic solvents [3]: soluble
bioavailability via intranasal route [4]: increased substantially
SMILES: COc1ccc2[nH]cc(CCNC(C)=O)c2c1 [Melatonin, N-[2-(5-Methoxy-1H-indol-3-yl)ethyl] acetamide]
